Structures can show the parent of a compound that is named as a salt.
Legend:
[1] = system: Naive male albino BKW mice; test: Anti-anxiety test (light/dark two-compartment box, method of Costall et al); format: in vivo; conditions: 40 min pretreatment, n = 5
Experimental: (§1) The anxiolytic activity was determined by the method of Costall et al details of which are to be found in the pharmacology examples later in this specification. In brief, the method involves seeing whether the compound under test reduced the natural anxiety of mice in brightly-lit areas. Anxiolytic activity was also assessed by the method of Crawley and Goodwin (Pharm. Biochem. Behavior (1980), 13,167-170).
Naive male albino BKW mice, 25-30g, were used in all experiments. 10 mice were normally housed in each cage and given free access to food and water. The mice were kept on a 12h light and 12h dark cycle with lights off at 8.00am and on at 8.00pm.
The apparatus used for the detection of changes in anxiety consisted of an open topped box (45 x 27 x 27cm high) one third painted black and illuminated under a dim red light (1 x 60W) and partitioned from the remainder of the box which was painted white and brightly illuminated with a 100W light source located 17cm above the box. Access between these areas was enabled by means of a 7.5 x 7.5cm opening located at floor level in the centre of the partition. The floor area was lined into 9cm squares. The test was conducted between 13.00 and 18.00h in a quiet, darkened room illuminated with red light only. Animals were thus taken in a dark container from a dark holding room to the dark testing room.
Animals that had received drug or vehicle injections were placed individually into the centre of the white area and their behaviour observed over a 5 min period by remote video recording.
Animals were used in treatment groups of 5 and vehicle controls were run on each day of testing. Results were anlysed using Single-Factor Analysis of Variance followed by Dunnett's procedure for comparing all treatments with control.
Compounds of Example 14 and Comparison Example 1 were dissolved in minimum HCI made up to volume with distilled water. Doses were expressed as the base and were administered as a 40 min pretreatment in a volume of 1 mIi100g body weight. Administration was by the subcutaneous route.

[2] = system: mouse; test: Exploratory behaviour of the mouse in a two-compartment box (method of Crawley and Goodwin); format: in vivo; design: key: +: significant increase vs. control; -: significant decrease vs. control; ns: no significant change vs. control; conditions: dose 0.1-10 mg/kg ip, change vs. control
Experimental: as §1
Compounds of the invention have been studied in the laboratory animal to evaluate their anxiolytic activity. As a typical compound of the invention, R(+)-4-Amino-N-(3-quinuclidinyl)-5-chloro-2-methoxy benzamide dihydrochloride (R(+)-4-Amino-N-(1-azabicyclo[2.2.2]oct-3-yl)-5-chloro-2-methoxybenzamide dihydrochloride), the compound of Example 14, was investigated for its anxiolytic activity, which was compared with that of the racemate (unresolved product of Example 2) and the corresponding enantiomer of absolute configuration S (product of Comparison Example 1).
The method used in this example was that described by Crawley and Goodwin (Pharm. Biochem. Behavior (1980) 13, 167-170), where aspects of behaviour of the mouse are compared in a lit zone and a dark zone of a two-compartment box.

[3] = Black Section, 0.1 mg/kg subcutaneous
[4] = Black Section, 1.0 mg/kg subcutaneous
[5] = Black Section, 10.0 mg/kg subcutaneous
[6] = White Section, 0.1 mg/kg subcutaneous
[7] = White Section, 1.0 mg/kg subcutaneous
[8] = White Section, 10.0 mg/kg subcutaneous

| SMILES | Crossings/5min [1, 3] | Rearings/5 min [1, 3] | Crossings/5min [1, 4] | Rearings/5 min [1, 4] | Crossings/5min [1, 5] | Rearings/5 min [1, 5] | Crossings/5min [1, 6] | Rearings/5 min [1, 6] | Crossings/5min [1, 7] | Rearings/5 min [1, 7] | Crossings/5min [1, 8] | Rearings/5 min [1, 8] | Movement activity ([2]; Dark zone) | Straightenings ([2]; Dark zone) | Movement activity ([2]; Light zone) | Straightenings ([2]; Light zone) |
| --- | --- | --- | --- | --- | --- | --- | --- | --- | --- | --- | --- | --- | --- | --- | --- | --- |
| COc1cc(N)c(Cl)cc1C(=O)N[C@H]1CN2CCC1CC2 [Example 14, R(+)-4-Amino-N-(3-quinuclidinyl)-5-chloro-2-methoxybenzamide hydrochloride] | 14.6±1.5^+++ | 13.6±1.1^+++ | 13.6±1.2^+++ | 13.0±1.4^+++ | 17.6±1.4^+++ | 14.7±1.2^+++ | 52.9±5.0 | 64.8±6.0 | 87.4±7.6 | 82.4±7.4 | 73.7±7.2 | 76.2±7.6 | - | - | + | + |
| COc1cc(N)c(Cl)cc1C(=O)NC1CN2CCC1CC2 (racemic) [Compound of Example 2] |  |  |  |  |  |  |  |  |  |  |  |  | - | - | + | + |
| COc1cc(N)c(Cl)cc1C(=O)N[C@@H]1CN2CCC1CC2 [Comparison Example 1, S(-)-4-Amino-N-(3-quinuclidinyl)-5-chloro-2-methoxybenzamide hydrochloride] | 39.4±3.0 | 35.2±3.1 | 37.6±3.8 | 38.1±3.2 | 50.8±5.2 | 48.3±4.1 | 23.2±2.3 | 23.0±2.1 | 26.8±2.7 | 21.5±2.0 | 24.7±2.1 | 24.0±1.9 | ns | ns | ns | ns |

Source: patent EP0311724A1, “Anxiolytic-R-N-(1-azabicyclo[2.2.2]oct-3-yl) benzamides and thiobenzamides” (SYNTHELABO, priority 1987, dated 1989)
